Test results reported in US20110105540A1, “2-AMINO-9-[4-(4-METHOXY-PHENOXY)-PIPERIDIN-1-YL]-4-PHENYL-INDENO[1,2-D]PYRIMIDIN-5-ONE AND ITS USE AS A HIGHLY SELECTIVE ADENOSINE A2a RECEPTOR ANTAGONIST” (priority 2009, published 2011).

How the values were obtained:
[1] = biological target: T1, human adenosine A1 receptor (Homo sapiens, UniProt P30542); assay: Adenosine A1 Receptor Functional Assay (A1GAL2); type: cell-based; settings: CHO-K1 cells overexpressing human A1 receptor, cAMP inducible beta-galactosidase reporter, 4 nM r-PIA/1 uM Forskolin agonist challenge
T1 construct: expressed in transfected cells; host or cells: CHO-K1
T1 sequence (P30542 1-326): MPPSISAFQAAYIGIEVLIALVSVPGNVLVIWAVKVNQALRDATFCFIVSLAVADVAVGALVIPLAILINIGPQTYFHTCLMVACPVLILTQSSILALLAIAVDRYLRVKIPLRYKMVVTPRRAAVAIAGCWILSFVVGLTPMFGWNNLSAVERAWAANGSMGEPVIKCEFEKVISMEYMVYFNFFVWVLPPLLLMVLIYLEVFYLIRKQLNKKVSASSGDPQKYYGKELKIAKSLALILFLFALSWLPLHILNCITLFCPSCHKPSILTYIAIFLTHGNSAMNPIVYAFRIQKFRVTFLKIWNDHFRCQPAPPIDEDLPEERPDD
Protocol: To initiate the functional assay, cryopreserved CHO-K1 cells overexpressing the human adenosine A1 receptor and containing a cAMP inducible beta-galactosidase reporter gene were thawed, centrifuged, DMSO containing media removed, and then seeded with fresh culture media into clear 384-well tissue culture treated plates (BD #353961) at a concentration of 10K cells/well. Prior to assay, these plates were cultured for two days at 37° C., 5% CO2, 90% Rh. On the day of the functional assay, culture media was removed and replaced with 45 μL assay medium (Hams/F-12 Modified (Mediatech #10-080CV) supplemented w/0.1% BSA). Test compounds were diluted and 11 point curves created at a 1000× concentration in 100% DMSO. Immediately after addition of assay media to the cell plates, […] of the appropriate test compound antagonist or agonist control curves were added to cell plates using a Cartesian Hummingbird. Compound curves were allowed to incubate at room temperature on cell plates for approximately 15 minutes before addition of a 4 nM r-PIA (Sigma P4532)/1 uM Forskolin (Sigma F3917) agonist challenge (5 μL volume). […] Plates were counted at 405 nm on a SpectraMax Microplate Reader (Molecular Devices). Data was analyzed in Microsoft Excel and IC/EC50 curves were fit using a standardized macro.

[2] = biological target: T2, human adenosine A2A receptor (Homo sapiens, UniProt P29274); assay: Adenosine A2A Receptor Functional Assay (A2AGAL2); type: cell-based
T2 construct: expressed in transfected cells; host or cells: CHO-K1
Protocol: To initiate the functional assay, cryopreserved CHO-K1 cells overexpressing the human adenosine A2A receptor and containing a cAMP inducible beta-galactosidase reporter gene were thawed, centrifuged, DMSO containing media removed, and then seeded with fresh culture media into clear 384-well tissue culture treated plates (BD #353961) at a concentration of 10K cells/well. Prior to assay, these plates were cultured for two days at 37° C., 5% CO2, 90% Rh. On the day of the functional assay, culture media was removed and replaced with 45 μL assay medium (Hams/F-12 Modified (Mediatech #10-080CV) supplemented w/0.1% BSA). Test compounds were diluted and 11 point curves created at a 1000× concentration in 100% DMSO. Immediately after addition of assay media to the cell plates, 50 nL of the appropriate test compound antagonist or agonist control curves were added to cell plates using a Cartesian Hummingbird. Compound curves were allowed to incubate at room temperature on cell plates for approximately 15 minutes before addition of a 15 nM NECA (Sigma E2387) agonist challenge (5 μL volume). […]
The colorimetric reaction was stopped with the addition of 60 μL/well 1M sodium carbonate. Plates were counted at 405 nm on a SpectraMax Microplate Reader (Molecular Devices). Data was analyzed in Microsoft Excel and IC/EC50 curves were fit using a standardized macro.

T2 sequence (P29274 whole entry): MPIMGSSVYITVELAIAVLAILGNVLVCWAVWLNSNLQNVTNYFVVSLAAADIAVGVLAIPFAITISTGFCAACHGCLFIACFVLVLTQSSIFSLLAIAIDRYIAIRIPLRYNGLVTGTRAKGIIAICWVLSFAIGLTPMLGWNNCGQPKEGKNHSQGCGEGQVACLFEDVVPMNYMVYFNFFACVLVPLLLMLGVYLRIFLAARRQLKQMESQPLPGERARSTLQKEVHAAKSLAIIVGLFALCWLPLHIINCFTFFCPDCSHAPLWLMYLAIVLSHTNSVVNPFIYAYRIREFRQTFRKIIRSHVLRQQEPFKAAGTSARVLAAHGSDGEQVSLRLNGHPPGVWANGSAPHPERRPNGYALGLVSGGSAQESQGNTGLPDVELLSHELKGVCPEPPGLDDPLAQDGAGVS

IC50 [1]: 7.3 µM | IC50 ([2]; CHO-K1 cells overexpressing human A2A receptor, cAMP inducible beta-galactosidase reporter, 15 nM NECA agonist challenge): 0.0023 µM | A1/A2A ([2]; ratio of A1Gal2 to A2AGal2 values (selectivity for A2A over A1)): 3173.91
Structure (SMILES): COc1ccc(OC2CCN(c3cccc4c3-c3nc(N)nc(-c5ccccc5)c3C4=O)CC2)cc1 [Example A, 2-Amino-9-[4-(4-methoxy-phenoxy)-piperidin-1-yl]-4-phenyl-indeno[1,2-d]pyrimidin-5-one]
